We go through 13 compounds from ChEMBL document CHEMBL4390708, “Design, synthesis, in-silico studies and biological screening of quinazolinone analogues as potential antibacterial agents against MRSA” (2019).

By MIC is commonly meant the lowest concentration that inhibits growth of the organism.

Common to all, as to type: functional
In assay [1] the test system is Staphylococcus aureus. The assay can be described thus: Antibacterial activity against Staphylococcus aureus assessed as reduction in bacterial cell viability incubated for 20 to 24 hrs by REMA method.
The subject of another assay is Escherichia coli. In words: Antibacterial activity against Escherichia coli assessed as reduction in bacterial cell viability incubated for 20 to 24 hrs by REMA method.
The subject of assay [2] is Staphylococcus aureus. The assay can be described thus: Antibacterial activity against methicillin-resistant Staphylococcus aureus assessed as reduction in bacterial cell viability incubated for 20 to 24 hrs by REMA method.

Values after ≈ are worked out from the molar mass of the structure shown.

On to `O=C(Nc1cccc(-n2c(/C=C/c3ccc(F)cc3)nc3ccccc3c2=O)c1)c1cccs1`, for which the MIC with Staphylococcus aureus [1] came out at 31.2 µg/mL (≈ 66.8 µM); with Escherichia coli it was 62.5 µg/mL (≈ 134 µM); in the assay with Staphylococcus aureus [2], 31.2 µg/mL (≈ 66.8 µM).
With `Cc1ccccc1C(=O)Nc1cccc(-n2c(/C=C/c3ccc(C#N)cc3)nc3ccccc3c2=O)c1`, the MIC with Staphylococcus aureus [1], in the assay on Escherichia coli and in the assay with Staphylococcus aureus [2] was 62.5 µg/mL (≈ 130 µM) each time.
Consider `COc1ccc(C(=O)Nc2cccc(-n3c(/C=C/c4ccc(F)cc4)nc4ccccc4c3=O)c2)cc1OC`, for which the MIC in the assay with Staphylococcus aureus [1], in the assay on Escherichia coli and with Staphylococcus aureus [2] was 62.5 µg/mL (≈ 120 µM) each time.
As for `O=C(Nc1cccc(-n2c(/C=C/c3ccc(F)cc3)nc3ccccc3c2=O)c1)c1ccccc1`, the MIC in the assay on Staphylococcus aureus [1] worked out at 125 µg/mL (≈ 271 µM); in the assay with Escherichia coli it was 62.5 µg/mL (≈ 135 µM); in the assay with Staphylococcus aureus [2], 62.5 µg/mL (≈ 135 µM).
Take `COc1ccc(CC(=O)Nc2cccc(-n3c(/C=C/c4ccc(Cl)cc4)nc4ccccc4c3=O)c2)cc1`: the MIC is 15.6 µg/mL (≈ 29.9 µM) in the assay with Staphylococcus aureus [1], 62.5 µg/mL (≈ 120 µM) in the assay with Escherichia coli and 31.2 µg/mL (≈ 59.9 µM) with Staphylococcus aureus [2].
Take `N#Cc1ccc(/C=C/c2nc3ccccc3c(=O)n2-c2cccc(NC(=O)c3ccccc3)c2)cc1`: the MIC in the assay with Staphylococcus aureus [1], with Escherichia coli and in the assay with Staphylococcus aureus [2] was 62.5 µg/mL (≈ 133 µM) throughout.
As to `Cc1ccccc1C(=O)Nc1cccc(-n2c(/C=C/c3ccc(F)cc3)nc3ccccc3c2=O)c1`, the MIC is 125 µg/mL (≈ 263 µM) in the assay with Staphylococcus aureus [1], 62.5 µg/mL (≈ 131 µM) in the assay on Escherichia coli and 62.5 µg/mL (≈ 131 µM) in the assay on Staphylococcus aureus [2].
With `COc1ccc(CC(=O)Nc2cccc(-n3c(/C=C/c4ccc(F)cc4)nc4ccccc4c3=O)c2)cc1`, the MIC in the assay with Staphylococcus aureus [1], in the assay on Escherichia coli and in the assay on Staphylococcus aureus [2] was 62.5 µg/mL (≈ 124 µM) throughout.
With `N#Cc1ccc(/C=C/c2nc3ccccc3c(=O)n2-c2cccc(NC(=O)c3cccs3)c2)cc1`, the MIC in the assay with Staphylococcus aureus [1], with Escherichia coli and with Staphylococcus aureus [2] was 62.5 µg/mL (≈ 132 µM) each time.
Turning to `COc1ccc(C(=O)Nc2cccc(-n3c(/C=C/c4ccc(Cl)cc4)nc4ccccc4c3=O)c2)cc1OC`, the MIC in the assay with Staphylococcus aureus [1], in the assay on Escherichia coli and in the assay with Staphylococcus aureus [2] was 62.5 µg/mL (≈ 116 µM) in each case.
With `NC[C@H]1O[C@H](O[C@H]2[C@H](O)[C@@H](O[C@H]3O[C@H](CO)[C@@H](O)[C@H](N)[C@H]3O)[C@H](N)C[C@@H]2N)[C@H](O)[C@@H](O)[C@@H]1O` [KANAMYCIN], the MIC in the assay on Staphylococcus aureus [1] and in the assay on Escherichia coli was 7.8 µg/mL (≈ 16.1 µM) each time.
Consider `CC(=O)NC[C@H]1CN(c2ccc(N3CCOCC3)c(F)c2)C(=O)O1` [LINEZOLID], for which the MIC with Staphylococcus aureus [2] is 7.8 µg/mL (≈ 23.1 µM).
As for `CN[C@@H]1[C@H](O[C@H]2[C@H](O[C@H]3[C@H](O)[C@@H](O)[C@H](N=C(N)N)[C@@H](O)[C@@H]3N=C(N)N)O[C@@H](C)[C@]2(O)C=O)O[C@@H](CO)[C@H](O)[C@H]1O` [STREPTOMYCIN], the MIC with Staphylococcus aureus [1] and in the assay on Escherichia coli was 7.8 µg/mL (≈ 13.4 µM) each time.
